Experiments:
Type in all cases: functional
NCI-H460 [1] = experiment: Chemo-sensitizing activity against human NCI-H460 cells assessed as reversal fold at 1 uM measured after 72 hrs in presence of mitoxantrone by CCK8 assay relative to control
NCI-H460 [2] = experiment: Chemo-sensitizing activity against mitoxantrone-selected ABCG2-overexpressing human NCI-H460/MX20 cells assessed as reversal fold at 1 uM measured after 72 hrs in presence of mitoxantrone by CCK8 assay relative to control
NCI-H460 [3] = experiment: Chemo-sensitizing activity against human NCI-H460 cells assessed as reversal fold at 1 uM measured after 72 hrs in presence of topotecan by CCK8 assay relative to control
NCI-H460 [4] = experiment: Chemo-sensitizing activity against mitoxantrone-selected ABCG2-overexpressing human NCI-H460/MX20 cells assessed as reversal fold at 1 uM measured after 72 hrs in presence of topotecan by CCK8 assay relative to control
NCI-H460 [5] = experiment: Chemo-sensitizing activity against human NCI-H460 cells assessed as reversal fold at 1 uM measured after 72 hrs in presence of SN-38 by CCK8 assay relative to control
NCI-H460 [6] = experiment: Chemo-sensitizing activity against mitoxantrone-selected ABCG2-overexpressing human NCI-H460/MX20 cells assessed as reversal fold at 1 uM measured after 72 hrs in presence of SN-38 by CCK8 assay relative to control
A549 [7] = experiment: Chemo-sensitizing activity against human A549 cells assessed as reversal fold at 1 uM measured after 72 hrs in presence of mitoxantrone by CCK8 assay relative to control
A549 [8] = experiment: Chemo-sensitizing activity against becatecarin-selected ABCG2-overexpressing human A549/Bec150 cells assessed as reversal fold at 1 uM measured after 72 hrs in presence of mitoxantrone by CCK8 assay relative to control
A549 [9] = experiment: Chemo-sensitizing activity against human A549 cells assessed as reversal fold at 1 uM measured after 72 hrs in presence of topotecan by CCK8 assay relative to control
A549 [10] = experiment: Chemo-sensitizing activity against becatecarin-selected ABCG2-overexpressing human A549/Bec150 cells assessed as reversal fold at 1 uM measured after 72 hrs in presence of topotecan by CCK8 assay relative to control
A549 [11] = experiment: Chemo-sensitizing activity against human A549 cells assessed as reversal fold at 1 uM measured after 72 hrs in presence of SN-38 by CCK8 assay relative to control
A549 [12] = experiment: Chemo-sensitizing activity against becatecarin-selected ABCG2-overexpressing human A549/Bec150 cells assessed as reversal fold at 1 uM measured after 72 hrs in presence of SN-38 by CCK8 assay relative to control
HEK293 [13] = experiment: Chemo-sensitizing activity against human HEK293 cells assessed as reversal fold at 1 uM measured after 72 hrs in presence of mitoxatrone by CCK8 assay relative to control
HEK293 [14] = experiment: Chemo-sensitizing activity against ABCG2-overexpressing human HEK293/482R cells assessed as reversal fold at 1 uM measured after 72 hrs in presence of mitoxatrone by CCK8 assay relative to control
HEK293 [15] = experiment: Chemo-sensitizing activity against human HEK293 cells assessed as reversal fold at 1 uM measured after 72 hrs in presence of topotecan by CCK8 assay relative to control
HEK293 [16] = experiment: Chemo-sensitizing activity against ABCG2-overexpressing human HEK293 cells assessed as reversal fold at 1 uM measured after 72 hrs in presence of topotecan by CCK8 assay relative to control
HEK293 [17] = experiment: Chemo-sensitizing activity against human HEK293 cells assessed as reversal fold at 1 uM measured after 72 hrs in presence of SN-38 by CCK8 assay relative to control
HEK293 [18] = experiment: Chemo-sensitizing activity against ABCG2-overexpressing human HEK293/482R cells assessed as reversal fold at 1 uM measured after 72 hrs in presence of SN-38 by CCK8 assay relative to control
NCI/ADR-RES [19] = experiment: Chemo-sensitizing activity against ABCB1-overexpressing human NCI/ADR-RES cells assessed as reversal fold at 1 uM measured after 72 hrs in presence of paclitaxel by CCK8 assay relative to control
OVCAR-8 [20] = experiment: Chemo-sensitizing activity against human OVCAR-8 cells assessed as reversal fold at 1 uM measured after 72 hrs in presence of vincristine by CCK8 assay relative to control
NCI/ADR-RES [21] = experiment: Chemo-sensitizing activity against ABCB1-overexpressing human NCI/ADR-RES cells assessed as reversal fold at 1 uM measured after 72 hrs in presence of vincristine by CCK8 assay relative to control
OVCAR-8 [22] = experiment: Chemo-sensitizing activity against human OVCAR-8 cells assessed as reversal fold at 1 uM measured after 72 hrs in presence of paclitaxel by CCK8 assay relative to control
OVCAR-8 [23] = experiment: Chemo-sensitizing activity against human OVCAR-8 cells assessed as reversal fold at 1 uM measured after 72 hrs in presence of colchicine by CCK8 assay relative to control
NCI/ADR-RES [24] = experiment: Chemo-sensitizing activity against ABCB1-overexpressing human NCI/ADR-RES cells assessed as reversal fold at 1 uM measured after 72 hrs in presence of colchicine by CCK8 assay relative to control
KB 3-1 [25] = experiment: Chemo-sensitizing activity against human KB 3-1 cells assessed as reversal fold at 1 uM measured after 72 hrs in presence of vincristine by CCK8 assay relative to control
KB-V1 [26] = experiment: Chemo-sensitizing activity against ABCB1-overexpressing human KB-V1 cells assessed as reversal fold at 1 uM measured after 72 hrs in presence of vincristine by CCK8 assay relative to control
KB 3-1 [27] = experiment: Chemo-sensitizing activity against human KB 3-1 cells assessed as reversal fold at 1 uM measured after 72 hrs in presence of paclitaxel by CCK8 assay relative to control
KB-V1 [28] = experiment: Chemo-sensitizing activity against ABCB1-overexpressing human KB-V1 cells assessed as reversal fold at 1 uM measured after 72 hrs in presence of paclitaxel by CCK8 assay relative to control
KB 3-1 [29] = experiment: Chemo-sensitizing activity against human KB 3-1 cells assessed as reversal fold at 1 uM measured after 72 hrs in presence of colchicine by CCK8 assay relative to control
KB-V1 [30] = experiment: Chemo-sensitizing activity against ABCB1-oveexpressing human KB-V1 cells assessed as reversal fold at 1 uM measured after 72 hrs in presence of colchicine by CCK8 assay relative to control
HEK293 [31] = experiment: Chemo-sensitizing activity against human HEK293 cells assessed as reversal fold at 1 uM measured after 72 hrs in presence of vincristine by CCK8 assay relative to control
HEK293 [32] = experiment: Chemo-sensitizing activity against ABCB1-overexpressing human HEK293/MDR19 cells assessed as reversal fold at 1 uM measured after 72 hrs in presence of vincristine by CCK8 assay relative to control
HEK293 [33] = experiment: Chemo-sensitizing activity against human HEK293 cells assessed as reversal fold at 1 uM measured after 72 hrs in presence of paclitaxel by CCK8 assay relative to control
HEK293 [34] = experiment: Chemo-sensitizing activity against ABCB1-overexpressing human HEK293/MDR19 cells assessed as reversal fold at 1 uM measured after 72 hrs in presence of paclitaxel by CCK8 assay relative to control
HEK293 [35] = experiment: Chemo-sensitizing activity against human HEK293 cells assessed as reversal fold at 1 uM measured after 72 hrs in presence of colchicine by CCK8 assay relative to control
HEK293 [36] = experiment: Chemo-sensitizing activity against ABCB1-overexpressing human HEK293/MDR19 cells assessed as reversal fold at 1 uM measured after 72 hrs in presence of colchicine by CCK8 assay relative to control

Structure (SMILES): COc1ccc2c3c([nH]c2c1)[C@H](CC(C)C)N1C(=O)[C@H](CCC(=O)OC(C)(C)C)NC(=O)[C@@H]1C3
- fold change (FC) (NCI-H460 [1]): 1.7
- fold change (FC) (NCI-H460 [2]): 18
- fold change (FC) (NCI-H460 [3]): 2.7
- fold change (FC) (NCI-H460 [4]): 22.6
- fold change (FC) (NCI-H460 [5]): 3
- fold change (FC) (NCI-H460 [6]): 20.6
- fold change (FC) (A549 [7]): 2
- fold change (FC) (A549 [8]): 14.9
- fold change (FC) (A549 [9]): 1.7
- fold change (FC) (A549 [10]): 9.1
- fold change (FC) (A549 [11]): 1.6
- fold change (FC) (A549 [12]): 13.2
- fold change (FC) (HEK293 [13]): 1.1
- fold change (FC) (HEK293 [14]): 11.9
- fold change (FC) (HEK293 [15]): 0.9
- fold change (FC) (HEK293 [16]): 5.8
- fold change (FC) (HEK293 [17]): 1
- fold change (FC) (HEK293 [18]): 24.1

Structure (SMILES): COc1cc2c(cc1OC)CN(CCc1ccc(NC(=O)c3cc(OC)c(OC)cc3NC(=O)c3cnc4ccccc4c3)cc1)CC2 [TARIQUIDAR]
- fold change (FC) (NCI/ADR-RES [19]): 1040
- fold change (FC) (OVCAR-8 [20]): 1.3
- fold change (FC) (NCI/ADR-RES [21]): 174
- fold change (FC) (OVCAR-8 [22]): 1
- fold change (FC) (OVCAR-8 [23]): 1
- fold change (FC) (NCI/ADR-RES [24]): 45
- fold change (FC) (KB 3-1 [25]): 1.1
- fold change (FC) (KB-V1 [26]): 786
- fold change (FC) (KB 3-1 [27]): 0.9
- fold change (FC) (KB-V1 [28]): 1281
- fold change (FC) (KB 3-1 [29]): 1.2
- fold change (FC) (KB-V1 [30]): 50.7
- fold change (FC) (HEK293 [31]): 1.5
- fold change (FC) (HEK293 [32]): 245.2
- fold change (FC) (HEK293 [33]): 1
- fold change (FC) (HEK293 [34]): 309
- fold change (FC) (HEK293 [35]): 1
- fold change (FC) (HEK293 [36]): 12.9
